Assay results reported in patent publication US20090258045A1, “[…] ANTIMICROBIAL PEPTIDES” (Massachusetts Institute of Technology, priority 2008, published 2009).

Legend:
S. aureus [1] = details: free Ponericin; cited from earlier work
S. aureus [2] = test: Staphyloccocus aureus macrodilution assay; format: cell-based, Staphylococcus aureus
Method: Staphyloccocus aureus macrodilution assays. All liquid assays were performed in cation-adjusted Mueller Hinton Broth II (CMHB). Qualitative assays were performed following standard macrodilution methods as outlined by the National Committee on Clinical Laboratory Standards (Standards, N. C. f. C. L. Journal, 1999, Approved standard M26-A) with a challenge of 10^5 CFU/mL. For assays involving co-incubation with films deposited on silicon, 24-well plates were used, with 0.5 mL of liquid culture per well. Briefly, each square-cut silicon substrate (1.0 cm×1.0 cm), either bare or coated depending on the test group, was placed flat in the center of a well in a 24-well plate, polished side up. Each well was then filled with 0.50 mL of S. aureus in exponential growth phase at 10^5 CFU/mL in CMHB, completely immersing the substrate. Quantitative assays were done in 96-well plates with 150 μL of liquid culture per well, with 135 μL of test media and 15 μL of inoculation culture at 10^6 CFU/mL in CMHB. All test media were sterile-filtered through 0.2 μm membranes prior to use. […] Cell density was read at OD 600 nm in a BioTek® PowerWave™ XS Microplate Spectrophotometer with accompanying Gen5 program Version 1.00.14. […]
Antimicrobial activity of Ponericin as released from LbL assemblies. In vitro activity of Ponericin, both in dipping solution and as released from films, were assessed against S. aureus. […]

Substance: Ponericin G1
- reported MIC (S. aureus [1]): 4 to 8 µg/mL
- concentration needed to inhibit S. aureus proliferation (S. aureus [2]; dipping solution: free Ponericin in 0.1M sodium acetate (FIG. 7A)): 11 to 22 µg/mL
- concentration needed to inhibit S. aureus proliferation (S. aureus [2]; film-released: elution buffer of [(Poly 1/HA)(Pon/HA)]100 (FIG. 7B)): 11 to 22 µg/mL
